Measurements: patent US9388179B2, “N-substituted indazole sulfonamide compounds with selective activity in voltage-gated sodium channels” (Merck Sharp & Dohme Corp., priority 2012, dated 2016)

Assays:
[1] = molecular target: T1, human Nav1.5 channels stably expressed in HEK 293 cells (Homo sapiens, UniProt Q14524); assay: PatchXpress 7000 automated patch-clamp, inactivated state block; type: cell-based; settings: PatchXpress technique
T1 construct: expressed in transfected cells; host or cells: HEK 293
T1 sequence (Q14524 whole entry): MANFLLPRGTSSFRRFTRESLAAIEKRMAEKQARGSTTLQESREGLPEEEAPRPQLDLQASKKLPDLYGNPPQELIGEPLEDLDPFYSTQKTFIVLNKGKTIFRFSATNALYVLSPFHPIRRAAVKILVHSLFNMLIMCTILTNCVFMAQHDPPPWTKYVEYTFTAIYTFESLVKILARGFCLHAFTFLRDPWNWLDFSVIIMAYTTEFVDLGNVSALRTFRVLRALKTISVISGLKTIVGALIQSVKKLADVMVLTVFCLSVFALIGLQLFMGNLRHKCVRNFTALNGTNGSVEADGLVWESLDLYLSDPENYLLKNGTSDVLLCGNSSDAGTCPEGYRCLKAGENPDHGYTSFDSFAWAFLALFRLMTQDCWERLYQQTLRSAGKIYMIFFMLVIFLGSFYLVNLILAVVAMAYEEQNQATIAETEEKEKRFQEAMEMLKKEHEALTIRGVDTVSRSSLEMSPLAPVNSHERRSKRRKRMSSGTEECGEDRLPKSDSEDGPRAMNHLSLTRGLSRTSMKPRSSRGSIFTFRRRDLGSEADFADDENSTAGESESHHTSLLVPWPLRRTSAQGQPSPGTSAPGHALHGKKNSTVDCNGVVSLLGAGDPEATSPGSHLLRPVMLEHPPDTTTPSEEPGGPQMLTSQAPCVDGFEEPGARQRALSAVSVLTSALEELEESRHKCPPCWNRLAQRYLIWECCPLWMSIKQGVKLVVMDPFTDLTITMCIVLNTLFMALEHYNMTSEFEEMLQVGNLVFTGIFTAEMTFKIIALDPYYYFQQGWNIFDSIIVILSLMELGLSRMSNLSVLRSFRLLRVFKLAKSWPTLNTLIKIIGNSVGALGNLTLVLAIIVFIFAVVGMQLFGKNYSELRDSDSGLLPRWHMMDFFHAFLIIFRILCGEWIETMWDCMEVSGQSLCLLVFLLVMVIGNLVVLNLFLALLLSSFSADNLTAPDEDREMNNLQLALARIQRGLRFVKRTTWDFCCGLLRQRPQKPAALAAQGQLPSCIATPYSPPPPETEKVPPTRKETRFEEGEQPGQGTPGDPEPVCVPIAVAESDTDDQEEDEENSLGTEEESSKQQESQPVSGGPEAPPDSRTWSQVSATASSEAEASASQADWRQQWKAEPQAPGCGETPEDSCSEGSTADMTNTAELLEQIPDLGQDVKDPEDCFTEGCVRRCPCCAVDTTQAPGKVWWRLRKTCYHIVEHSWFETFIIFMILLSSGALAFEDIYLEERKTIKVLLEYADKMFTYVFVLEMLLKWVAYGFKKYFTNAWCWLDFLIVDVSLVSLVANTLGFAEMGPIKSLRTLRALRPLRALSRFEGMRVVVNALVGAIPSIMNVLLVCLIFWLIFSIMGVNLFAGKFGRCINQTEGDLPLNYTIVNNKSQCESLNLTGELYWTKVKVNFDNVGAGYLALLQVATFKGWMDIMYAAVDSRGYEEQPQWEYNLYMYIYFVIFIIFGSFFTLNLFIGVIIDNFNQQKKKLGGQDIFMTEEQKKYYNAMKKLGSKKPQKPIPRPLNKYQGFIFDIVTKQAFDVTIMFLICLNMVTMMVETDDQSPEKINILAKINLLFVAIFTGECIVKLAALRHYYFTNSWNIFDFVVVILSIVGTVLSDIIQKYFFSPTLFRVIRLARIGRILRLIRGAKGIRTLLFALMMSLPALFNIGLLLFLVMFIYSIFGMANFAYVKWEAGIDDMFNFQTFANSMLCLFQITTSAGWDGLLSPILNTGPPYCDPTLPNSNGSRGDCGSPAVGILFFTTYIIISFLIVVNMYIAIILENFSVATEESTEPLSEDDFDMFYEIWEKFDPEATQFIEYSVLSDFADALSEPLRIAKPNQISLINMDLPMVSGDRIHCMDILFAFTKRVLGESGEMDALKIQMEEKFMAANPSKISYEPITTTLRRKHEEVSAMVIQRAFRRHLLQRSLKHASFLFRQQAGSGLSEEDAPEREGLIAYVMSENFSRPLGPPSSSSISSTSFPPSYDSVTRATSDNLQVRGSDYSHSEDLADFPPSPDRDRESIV
Protocol: (§1) For all electrophysiology experiments, offline analysis was used to correct for current rundown and to determine percent inhibition as a function of drug concentration. IC50 values were determined by fitting to the Hill equation.
(§2) Sodium Current Measurements on the PatchXpress 7000®:
(§3) To measure inactivated state block of sodium channels, test compounds were characterized in an automated PatchXpress® assay (Molecular Devices) using a double-pulse protocol on human Nav1.7 and Nav1.5 channels stably expressed in HEK 293 cells. Cells were held at a potential 20 mV negative to V0.5 inact. An 8000 ms pre-pulse 7 mV positive to V0.5 inact was given followed by a hyperpolarizing 2 ms pulse to −120 mV and a 20 ms test pulse to −20 mV. Protocol was applied to cells in the absence, presence of compound and after washout. The temperature of PatchXpress instruments was maintained at 22° C. The following recording solutions were used. Internal solution (mM): 30 CsCl, 5 HEPES, 10 EGTA, 120 CsF, 5 NaF, 2 MgCl2. External solution (mM): 120 NMDG, 40 NaCl, 1 KCl, 0.5 MgCl2, 5 HEPES, 2.7 CaCl2.

[2] = molecular target: T2, human Nav1.7 channels stably expressed in HEK 293 cells (Homo sapiens, UniProt Q15858); assay: as above; type: cell-based; settings: PatchXpress technique; read-out: Nav 1.7 potency
T2 construct: expressed in transfected cells; host or cells: HEK 293
T2 sequence (Q15858 whole entry): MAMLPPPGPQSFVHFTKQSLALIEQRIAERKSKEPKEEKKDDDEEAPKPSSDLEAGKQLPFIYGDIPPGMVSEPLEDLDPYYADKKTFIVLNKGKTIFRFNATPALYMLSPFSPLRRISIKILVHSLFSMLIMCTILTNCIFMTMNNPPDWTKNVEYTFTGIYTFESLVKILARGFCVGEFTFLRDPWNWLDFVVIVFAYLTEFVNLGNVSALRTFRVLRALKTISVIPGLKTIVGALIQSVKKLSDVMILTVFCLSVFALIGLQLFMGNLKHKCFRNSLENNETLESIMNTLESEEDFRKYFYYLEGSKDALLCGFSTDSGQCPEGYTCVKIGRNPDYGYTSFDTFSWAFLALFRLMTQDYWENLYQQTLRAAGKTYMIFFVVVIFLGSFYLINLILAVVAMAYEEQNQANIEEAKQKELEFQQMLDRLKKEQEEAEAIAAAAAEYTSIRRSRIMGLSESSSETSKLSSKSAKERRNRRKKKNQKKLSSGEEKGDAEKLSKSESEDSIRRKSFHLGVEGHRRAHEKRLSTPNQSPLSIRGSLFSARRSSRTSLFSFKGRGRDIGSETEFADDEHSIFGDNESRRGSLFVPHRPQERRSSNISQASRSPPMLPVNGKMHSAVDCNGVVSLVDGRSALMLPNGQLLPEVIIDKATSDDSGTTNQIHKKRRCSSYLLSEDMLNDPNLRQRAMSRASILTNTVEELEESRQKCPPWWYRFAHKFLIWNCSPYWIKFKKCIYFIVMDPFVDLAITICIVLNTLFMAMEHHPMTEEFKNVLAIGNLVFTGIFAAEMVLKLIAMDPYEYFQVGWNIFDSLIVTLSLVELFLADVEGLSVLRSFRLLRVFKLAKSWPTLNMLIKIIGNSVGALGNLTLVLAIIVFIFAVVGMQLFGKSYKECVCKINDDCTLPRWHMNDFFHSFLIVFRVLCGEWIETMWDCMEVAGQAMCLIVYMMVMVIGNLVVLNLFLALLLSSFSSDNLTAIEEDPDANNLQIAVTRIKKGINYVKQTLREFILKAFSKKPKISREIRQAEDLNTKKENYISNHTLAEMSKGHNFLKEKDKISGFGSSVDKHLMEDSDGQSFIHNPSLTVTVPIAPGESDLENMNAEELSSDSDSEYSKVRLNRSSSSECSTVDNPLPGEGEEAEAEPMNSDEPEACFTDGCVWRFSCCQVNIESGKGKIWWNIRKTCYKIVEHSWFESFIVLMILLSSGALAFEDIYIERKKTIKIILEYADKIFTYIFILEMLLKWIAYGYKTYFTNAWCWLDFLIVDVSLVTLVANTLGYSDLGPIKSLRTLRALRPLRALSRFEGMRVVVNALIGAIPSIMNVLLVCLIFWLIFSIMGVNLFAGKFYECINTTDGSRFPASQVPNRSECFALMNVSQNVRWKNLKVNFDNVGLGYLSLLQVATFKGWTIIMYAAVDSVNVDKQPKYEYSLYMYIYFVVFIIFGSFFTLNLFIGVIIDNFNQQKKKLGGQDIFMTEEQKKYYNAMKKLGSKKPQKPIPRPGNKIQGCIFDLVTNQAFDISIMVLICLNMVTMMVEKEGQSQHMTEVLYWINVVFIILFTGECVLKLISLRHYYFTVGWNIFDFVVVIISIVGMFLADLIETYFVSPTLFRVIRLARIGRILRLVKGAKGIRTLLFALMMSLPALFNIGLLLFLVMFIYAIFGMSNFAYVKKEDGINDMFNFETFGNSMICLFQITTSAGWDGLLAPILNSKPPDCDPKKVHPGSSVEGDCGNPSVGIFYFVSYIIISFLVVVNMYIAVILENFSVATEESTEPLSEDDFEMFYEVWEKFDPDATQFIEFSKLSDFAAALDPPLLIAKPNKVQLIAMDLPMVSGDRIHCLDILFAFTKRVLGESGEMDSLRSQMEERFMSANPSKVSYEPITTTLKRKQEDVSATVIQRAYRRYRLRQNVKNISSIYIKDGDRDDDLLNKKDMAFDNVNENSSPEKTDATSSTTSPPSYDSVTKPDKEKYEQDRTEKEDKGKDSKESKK
Protocol: as §1, §2, §3

SMILES | IC50 [2] | Ratio 1.5:1.7 = Nav 1.5 potency (nM)/Nav1.7 potency (nM) [1]
O=S(=O)(Nc1nccs1)c1cc2cnn(Cc3ccccc3C3=CCNCC3)c2cc1F [Ex-30, 6-fluoro-1-[2-(1,2,3,6-tetrahydropyridin-4-yl)benzyl]-N-1,3-thiazol-2-yl-1H-indazole-5-sulfonamide] | 82 nM | 326
C[C@H](c1ccccc1CCCN)n1ncc2cc(S(=O)(=O)Nc3cccc(F)n3)c(F)cc21 [Ex-33, 1-{(1R)-1-[2-(3-amino-propyl)phenyl]ethyl}-6-fluoro-N-(6-fluoropyridin-2-yl)-1H-indazole-5-sulfonamide] | 381 nM | 228
NCc1ccccc1Cn1ncc2cc(S(=O)(=O)Nc3cccc(F)n3)c(F)cc21 [Ex-35, 1-[2-(aminomethyl)benzyl]-6-fluoro-N-(6-fluoropyridin-2-yl)-1H-indazole-5-sulfonamide] | 568 nM | 53
C[C@H](c1cccc2c1CNCC2)n1ncc2cc(S(=O)(=O)Nc3cccc(F)n3)c(F)cc21 [Ex-37, 6-fluoro-N-(6-fluoropyridin-2-yl)-1-[(1R)-1-(1,2,3,4-tetrahydroisoquinolin-8-yl)ethyl]-1H-indazole-5-sulfonamide] | 372 nM | 64
C[C@H](c1ccccc1C1CNC1)n1ncc2cc(S(=O)(=O)Nc3cccc(F)n3)c(F)cc21 [Ex-40, 1-[(1R)-1-(2-azetidin-3-ylphenyl)ethyl]-6-fluoro-N-(6-fluoropyridin-2-yl)-1H-indazole-5-sulfonamide] | 775 nM | 11
O=S(=O)(Nc1cccc(F)n1)c1cc2cnn(Cc3ccccc3I)c2cc1F [Ex-41, 6-fluoro-N-(6-fluoropyridin-2-yl)-1-(2-iodobenzyl)-1H-indazole-5-sulfonamide] | 1070 nM | 7
O=S(=O)(Nc1cccc(F)n1)c1cc2cnn(Cc3cccc4c3CNC4)c2cc1F [Ex-42, 1-(2,3-dihydro-1H-isoindol-4-ylmethyl)-6-fluoro-N-(6-fluoropyridin-2-yl)-1H-indazole-5-sulfonamide] | 825 nM | 36
C[C@H](c1ccccc1C1CCNCC1)n1ncc2cc(S(=O)(=O)Nc3cccc(F)n3)c(F)cc21 [Ex-43, 6-fluoro-N-(6-fluoropyridin-2-yl)-1-[(1R)-1-(2-piperidin-4-ylphenyl)ethyl]-1H-indazole-5-sulfonamide] | 584 nM | 16
NCC#Cc1ccccc1Cn1ncc2cc(S(=O)(=O)Nc3cccc(F)n3)c(F)cc21 [Ex-44, 1-[2-(3-aminoprop-1-yn-1-yl)benzyl]-6-fluoro-N-(6-fluoropyridin-2-yl)-1H-indazole-5-sulfonamide] | 2530 nM | 10
CC(C)(N)CC#Cc1ccccc1Cn1ncc2cc(S(=O)(=O)Nc3cccc(F)n3)c(F)cc21 [Ex-45, 1-[2-(4-amino-4-methylpent-1-yn-1-yl)benzyl]-6-fluoro-N-(6-fluoropyridin-2-yl)-1H-indazole-5-sulfonamide] | 2040 nM | 18
C[C@H](c1ccccc1C#CCN)n1ncc2cc(S(=O)(=O)Nc3cccc(F)n3)c(F)cc21 [Ex-46, 1-{(1R)-1-[2-(3-aminoprop-1-yn-1-yl)phenyl]ethyl}-6-fluoro-N-(6-fluoropyridin-2-yl)-1H-indazole-5-sulfonamide] | 423 nM | 41
C[C@H](c1ccccc1C#C[C@@H]1CCCC[C@@H]1N)n1ncc2cc(S(=O)(=O)Nc3cccc(F)n3)c(F)cc21 [Ex-47, 1-[(1R)-1-(2-{[(1S,2S)-2-amino-cyclohexyl]ethynyl}phenyl)ethyl]-6-fluoro-N-(6-fluoropyridin-2-yl)-1H-indazole-5-sulfonamide] | 546 nM | 15
C[C@H](c1ccccc1C1=CCNCC1)n1ncc2cc(S(=O)(=O)Nc3cccc(F)n3)c(F)cc21 [Ex-48, 6-fluoro-N-(6-fluoropyridin-2-yl)-1-{(1R)-1-[2-(1,2,3,6-tetrahydropyridin-4-yl)phenyl]ethyl}-1H-indazole-5-sulfonamide] | 1120 nM | 5
O=S(=O)(Nc1cccc(F)n1)c1cc2cnn(Cc3cccc4c3CNCC4F)c2cc1F (stereo not drawn) [Ex-49, 6-fluoro-N-(6-fluoropyridin-2-yl)-1-[(4-fluoro-1,2,3,4-tetrahydro-isoquinolin-8-yl)methyl]-1H-indazole-5-sulfonamide] | 661 nM | 45
C[C@H](c1ccccc1C#C[C@H]1CCCC[C@H]1N)n1ncc2cc(S(=O)(=O)Nc3cccc(F)n3)c(F)cc21 [Ex-50, 1-[(1R)-1-(2-{[(1R,2R)-2-amino-cyclohexyl]ethynyl}phenyl)ethyl]-6-fluoro-N-(6-fluoropyridin-2-yl)-1H-indazole-5-sulfonamide] | 689 nM | 17
C[C@H](c1ccccc1C#CCN)n1ncc2cc(S(=O)(=O)Nc3ncc(Cl)s3)c(F)cc21 [Ex-56, 1-{(1R)-1-[2-(3-aminoprop-1-yn-1-yl)phenyl]ethyl}-N-(5-chloro-1,3-thiazol-2-yl)-6-fluoro-1H-indazole-5-sulfonamide] | 244 nM | 39

Continued by falling IC50 [2], values first:

IC50 [2] | SMILES | Ratio 1.5:1.7 = Nav 1.5 potency (nM)/Nav1.7 potency (nM) [1]
232 nM | NC1Cc2cccc(Cn3ncc4cc(S(=O)(=O)Nc5cccc(F)n5)c(F)cc43)c2C1 (stereo not drawn) [Ex-39, 1-[(2-amino-2,3-dihydro-1H-inden-4-yl)methyl]-6-fluoro-N-(6-fluoropyridin-2-yl)-1H-indazole-5-sulfonamide] | 129
185 nM | NCC(F)c1ccccc1Cn1ncc2cc(S(=O)(=O)Nc3cccc(F)n3)c(F)cc21 (stereo not drawn) [Ex-38, 1-[2-(2-amino-1-fluoroethyl)benzyl]-6-fluoro-N-(6-fluoropyridin-2-yl)-1H-indazole-5-sulfonamide] | 162
137 nM | C[C@H](c1cccc2c1CNCC2)n1ncc2cc(S(=O)(=O)Nc3ncc(Cl)s3)c(F)cc21 [Ex-54, N-(5-chloro-1,3-thiazol-2-yl)-6-fluoro-1-[(1R)-1-(1,2,3,4-tetrahydroisoquinolin-8-yl)ethyl]-1H-indazole-5-sulfonamide] | 50
111 nM | C[C@H](c1cccc2c1CNCC2)n1cc2cc(S(=O)(=O)Nc3ncc(Cl)s3)c(F)cc2n1 [Ex-55, N-(5-chloro-1,3-thiazol-2-yl)-6-fluoro-2-[(1R)-1-(1,2,3,4-tetrahydro-isoquinolin-8-yl)ethyl]-2H-indazole-5-sulfonamide] | 152
89 nM | NCC#Cc1ccccc1Cn1ncc2cc(S(=O)(=O)Nc3nccs3)c(F)cc21 [Ex-29, 1-[2-(3-aminoprop-1-yn-1-yl)benzyl]-6-fluoro-N-1,3-thiazol-2-yl-1H-indazole-5-sulfonamide] | 302
64 nM | NCCCc1ccccc1Cn1ncc2cc(S(=O)(=O)Nc3cccc(F)n3)c(F)cc21 [Ex-32, 1-[2-(3-amino-propyl)benzyl]-6-fluoro-N-(6-fluoropyridin-2-yl)-1H-indazole-5-sulfonamide] | 50
56 nM | NC1CCc2cccc(Cn3ncc4cc(S(=O)(=O)Nc5cccc(F)n5)c(F)cc43)c2C1 (single isomer, unassigned) [Ex-31, (R or S)-1-[(7-amino-5,6,7,8-tetrahydronaphthalen-1-yl)methyl]-6-fluoro-N-(6-fluoropyridin-2-yl)-1H-indazole-5-sulfonamide] | 772
25 nM | C[C@H](c1cccc2c1CNCC2)n1ncc2cc(S(=O)(=O)Nc3nccs3)c(F)cc21 [Ex-28, 6-fluoro-1-[(1R)-1-(1,2,3,4-tetrahydroisoquinolin-8-yl)ethyl]-N-1,3-thiazol-2-yl-1H-indazole-5-sulfonamide] | 870
8 nM | NC1CCc2cccc(Cn3ncc4cc(S(=O)(=O)Nc5ncc(Cl)s5)c(F)cc43)c2C1 (stereo not drawn) [Ex-53, 1-[(7-amino-5,6,7,8-tetrahydronaphthalen-1-yl)methyl]-N-(5-chloro-1,3-thiazol-2-yl)-6-fluoro-1H-indazole-5-sulfonamide] | 1193
5 nM | NC1CCc2cccc(Cn3ncc4cc(S(=O)(=O)Nc5nccs5)c(F)cc43)c2C1 (single isomer, unassigned) [Ex-26, (R or S)-1-[(7-amino-5,6,7,8-tetrahydronaphthalen-1-yl)methyl]-6-fluoro-N-1,3-thiazol-2-yl-1H-indazole-5-sulfonamide] | 3231
5 nM | NCCCc1ccccc1Cn1ncc2cc(S(=O)(=O)Nc3nccs3)c(F)cc21 [Ex-27, 1-[2-(3-aminopropyl)benzyl]-6-fluoro-N-1,3-thiazol-2-yl-1H-indazole-5-sulfonamide] | 48
